Measurements as given in ChEMBL document CHEMBL1201862, “PubChem BioAssay data set” (2004).
The source made the active and inactive calls.

Key:
[1] = viability of HT1080 fibrosarcoma cells – cell-based, ATPLite luminescence, set 1, cytotoxicity control for MT1-MMP activation inhibitor project, dose response (AID 652252); assay type: functional
[2] = target: Matrix metalloproteinase-14 (Homo sapiens, UniProt P50281); experiment: Dose Response confirmation of uHTS hits for a small molecule inhibitors of MT1-MMP activation in a fluorescence assay set 1.; assay type: functional
[3] = target: Hepatocyte nuclear factor 4-alpha (Homo sapiens, UniProt P41235); assay type: functional, cell-based;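 also: biochemical luminescence-based dose-response counterscreen measuring inhibition of HNF4 dimerization, run alongside a screen for blockers of ABHD5–perilipin-5 interaction; split luciferase complementation of HNF4 fusion proteins in cell lysate measuring dimerization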
Sequence of Hepatocyte nuclear factor 4-alpha (P41235 whole entry, the tested form may be a part): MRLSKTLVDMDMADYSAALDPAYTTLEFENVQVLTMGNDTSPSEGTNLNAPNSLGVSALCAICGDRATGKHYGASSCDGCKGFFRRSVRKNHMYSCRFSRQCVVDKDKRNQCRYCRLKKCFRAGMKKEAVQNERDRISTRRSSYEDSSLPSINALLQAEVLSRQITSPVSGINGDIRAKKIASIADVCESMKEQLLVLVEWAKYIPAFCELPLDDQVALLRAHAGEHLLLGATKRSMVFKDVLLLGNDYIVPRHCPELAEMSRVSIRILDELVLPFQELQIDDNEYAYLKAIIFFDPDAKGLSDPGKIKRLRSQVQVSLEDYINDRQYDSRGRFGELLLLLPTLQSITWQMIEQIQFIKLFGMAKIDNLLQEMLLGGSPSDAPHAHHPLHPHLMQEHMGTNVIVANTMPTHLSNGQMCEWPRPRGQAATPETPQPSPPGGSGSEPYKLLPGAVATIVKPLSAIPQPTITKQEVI

[4] = target: Beta-lactamase (Salmonella choleraesuis (strain SC-B67), UniProt Q5J463); experiment: Epi-absorbance-based counterscreen for selective VIM-2 inhibitors: dose response biochemical high throughput screening assay to identify inhibitors of TEM-1 serine-beta-lactamase.
Sequence of Beta-lactamase (Salmonella choleraesuis (strain SC-B67), UniProt Q5J463) (Q5J463 whole entry): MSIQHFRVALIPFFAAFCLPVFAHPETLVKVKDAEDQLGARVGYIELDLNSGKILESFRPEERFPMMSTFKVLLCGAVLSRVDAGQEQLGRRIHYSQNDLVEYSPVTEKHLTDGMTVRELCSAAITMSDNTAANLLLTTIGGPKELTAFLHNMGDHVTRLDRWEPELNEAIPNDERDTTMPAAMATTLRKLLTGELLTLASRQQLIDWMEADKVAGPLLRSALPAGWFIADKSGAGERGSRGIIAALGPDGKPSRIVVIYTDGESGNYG

[5] = target: T1, Beta-lactamase (Pseudomonas aeruginosa, UniProt Q79MP6); experiment: inhibition of IMP-1 beta-lactamase activity – biochemical, epi-absorbance, selectivity assay for VIM-2 inhibitor project, dose response (AID 1920)
T1 sequence (Q79MP6 whole entry): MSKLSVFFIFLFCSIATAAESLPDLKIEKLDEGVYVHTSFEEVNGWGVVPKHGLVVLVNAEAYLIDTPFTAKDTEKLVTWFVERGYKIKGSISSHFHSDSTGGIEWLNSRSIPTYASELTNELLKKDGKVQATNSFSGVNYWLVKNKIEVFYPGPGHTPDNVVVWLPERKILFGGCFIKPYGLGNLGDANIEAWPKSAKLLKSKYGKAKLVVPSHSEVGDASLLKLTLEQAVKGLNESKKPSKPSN

[6] = target: T1, Beta-lactamase; experiment: […] counterscreen for selective VIM-2 inhibitors: dose response biochemical high throughput screening assay to identify inhibitors of IMP-1 metallo-beta-lactamase.
[7] = target: Protein-tyrosine kinase 2-beta (Homo sapiens, UniProt Q14289);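 also: potency of inhibitors of PYK2 kinase phosphorylation of poly-GT substrate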
Sequence of Protein-tyrosine kinase 2-beta (Q14289 whole entry): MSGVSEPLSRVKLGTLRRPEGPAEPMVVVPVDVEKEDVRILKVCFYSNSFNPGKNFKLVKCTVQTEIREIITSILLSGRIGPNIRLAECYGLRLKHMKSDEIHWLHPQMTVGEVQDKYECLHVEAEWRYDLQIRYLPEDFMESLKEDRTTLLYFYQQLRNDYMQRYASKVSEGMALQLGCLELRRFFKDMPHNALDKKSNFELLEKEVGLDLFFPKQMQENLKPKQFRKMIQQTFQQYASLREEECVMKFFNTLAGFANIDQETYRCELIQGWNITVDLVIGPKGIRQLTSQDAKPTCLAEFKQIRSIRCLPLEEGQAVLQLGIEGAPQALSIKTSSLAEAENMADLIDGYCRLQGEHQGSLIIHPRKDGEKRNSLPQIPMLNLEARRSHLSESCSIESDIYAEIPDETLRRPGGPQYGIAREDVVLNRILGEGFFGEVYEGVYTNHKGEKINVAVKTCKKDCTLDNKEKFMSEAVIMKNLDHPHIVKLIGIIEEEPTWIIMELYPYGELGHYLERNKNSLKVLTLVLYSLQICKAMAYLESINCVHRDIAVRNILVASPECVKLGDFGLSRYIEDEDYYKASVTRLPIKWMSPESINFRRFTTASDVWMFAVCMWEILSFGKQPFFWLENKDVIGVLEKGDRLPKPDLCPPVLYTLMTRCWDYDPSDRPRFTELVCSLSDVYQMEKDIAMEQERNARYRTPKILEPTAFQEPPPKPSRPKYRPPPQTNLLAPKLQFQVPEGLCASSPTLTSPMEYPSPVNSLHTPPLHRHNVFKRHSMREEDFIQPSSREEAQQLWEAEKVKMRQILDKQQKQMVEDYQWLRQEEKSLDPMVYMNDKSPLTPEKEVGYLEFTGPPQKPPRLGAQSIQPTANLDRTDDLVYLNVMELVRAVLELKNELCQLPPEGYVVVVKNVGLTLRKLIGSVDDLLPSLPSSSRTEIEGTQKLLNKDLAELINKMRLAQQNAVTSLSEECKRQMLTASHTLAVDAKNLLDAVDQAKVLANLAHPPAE

[8] = activation of miR-122 Renilla sensor silencing – cell-based, Huh7 psiCHECK-miR122, Renilla luciferase, cherry-picked, dose response (AID 651956); assay type: functional;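 also: huh7 hepatoma cells stably carrying a psiCHECK-2 miR-122 sensor plasmid; renilla luciferase signal reporting endogenous miR-122 activity after 48 h compound exposure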
[9] = general mammalian cell viability loss – inhibitor set, cherry-pick, set 2, cytotoxicity control for miR-122 modulator project, dose response (AID 720697); assay type: functional, cell-based
[10] = target: Long-chain-fatty-acid--AMP ligase FadD28 (Mycobacterium tuberculosis, UniProt P9WQ59); experiment: Fluorescence polarization aasay to screen for inhibitors that compete for the binding of FadD28 to a bisubstrate Measured in Biochemical System Using Plate Reader - 2147-01_Inhibitor_Dose_CherryPick_Activity.; assay type: functional, Mycobacterium tuberculosis H37Rv
Sequence of Long-chain-fatty-acid--AMP ligase FadD28 (P9WQ59 whole entry): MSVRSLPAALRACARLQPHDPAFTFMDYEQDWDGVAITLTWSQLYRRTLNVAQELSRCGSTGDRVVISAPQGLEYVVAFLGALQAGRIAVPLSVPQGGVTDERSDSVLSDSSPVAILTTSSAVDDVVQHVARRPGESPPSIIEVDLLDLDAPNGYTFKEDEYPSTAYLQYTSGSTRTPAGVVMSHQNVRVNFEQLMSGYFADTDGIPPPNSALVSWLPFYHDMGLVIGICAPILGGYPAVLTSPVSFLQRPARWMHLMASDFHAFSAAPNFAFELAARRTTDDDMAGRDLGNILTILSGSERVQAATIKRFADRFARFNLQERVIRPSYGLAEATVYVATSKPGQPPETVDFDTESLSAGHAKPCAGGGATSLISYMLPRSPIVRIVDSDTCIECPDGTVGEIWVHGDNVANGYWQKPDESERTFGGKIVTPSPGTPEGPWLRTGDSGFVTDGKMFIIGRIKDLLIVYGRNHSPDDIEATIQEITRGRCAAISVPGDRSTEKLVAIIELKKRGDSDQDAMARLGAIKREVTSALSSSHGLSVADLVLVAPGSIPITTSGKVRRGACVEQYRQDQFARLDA

[11] = target: Mitochondrial peptide methionine sulfoxide reductase (Bos taurus, UniProt P54149); assay type: functional;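 also: absorbance read-out, biochemical high-throughput dose-response screen for MsrA inhibitors, confirmatory; recombinant bovine MsrA coupled to E. coli TrxB with NADPH and selenocystamine; potency is for inhibitors of MsrA activity on DMSO substrate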
Sequence of Mitochondrial peptide methionine sulfoxide reductase (P54149 whole entry): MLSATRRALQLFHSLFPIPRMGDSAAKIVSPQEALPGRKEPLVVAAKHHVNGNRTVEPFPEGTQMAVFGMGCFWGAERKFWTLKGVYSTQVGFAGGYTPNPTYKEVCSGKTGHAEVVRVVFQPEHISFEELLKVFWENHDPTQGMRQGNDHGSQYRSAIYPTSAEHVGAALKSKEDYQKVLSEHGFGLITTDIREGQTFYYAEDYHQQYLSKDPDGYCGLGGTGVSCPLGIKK

[12] = target: T2, Methionyl-tRNA synthetase, putative (Trypanosoma brucei brucei, UniProt Q38C91); assay type: functional, Trypanosoma brucei brucei strain 927/4 GUTat10.1
T2 sequence (Q38C91 whole entry): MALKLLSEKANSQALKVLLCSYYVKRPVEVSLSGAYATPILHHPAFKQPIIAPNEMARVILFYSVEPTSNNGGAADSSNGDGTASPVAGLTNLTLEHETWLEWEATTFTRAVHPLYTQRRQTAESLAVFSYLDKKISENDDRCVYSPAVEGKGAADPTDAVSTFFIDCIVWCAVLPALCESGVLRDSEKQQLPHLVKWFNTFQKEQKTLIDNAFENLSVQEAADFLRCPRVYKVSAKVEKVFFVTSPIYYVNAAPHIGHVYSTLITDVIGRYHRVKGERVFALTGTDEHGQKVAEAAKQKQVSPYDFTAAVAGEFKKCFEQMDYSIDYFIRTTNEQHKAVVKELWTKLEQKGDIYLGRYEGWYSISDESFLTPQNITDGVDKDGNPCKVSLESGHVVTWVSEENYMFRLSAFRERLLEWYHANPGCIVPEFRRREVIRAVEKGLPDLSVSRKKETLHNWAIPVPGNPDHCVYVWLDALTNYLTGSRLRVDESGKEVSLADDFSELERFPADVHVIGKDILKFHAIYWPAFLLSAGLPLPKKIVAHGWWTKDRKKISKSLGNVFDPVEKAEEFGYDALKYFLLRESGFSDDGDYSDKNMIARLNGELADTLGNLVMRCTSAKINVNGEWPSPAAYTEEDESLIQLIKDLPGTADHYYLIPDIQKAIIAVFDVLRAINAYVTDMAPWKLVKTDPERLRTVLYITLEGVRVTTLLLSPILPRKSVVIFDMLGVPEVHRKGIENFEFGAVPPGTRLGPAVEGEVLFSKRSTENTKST

[13] = Counterscreen for inhibitors of Trypanosoma brucei methionyl tRNA synthetase (MetRS): Luminescence-based cell-based high throughput dose response assay to identify compounds that are cytotoxic to Jurkat human T lymphocyte cells.; assay type: functional
[14] = target: T2, Methionyl-tRNA synthetase, putative; assay type: functional, Trypanosoma brucei brucei strain 927/4 GUTat10.1; remark: listed apart in the source
[15] = target: Adenosylmethionine-8-amino-7-oxononanoate aminotransferase (Mycobacterium tuberculosis, UniProt P9WQ81); experiment: Mycobacterium tuberculosis BioA enzyme inhibitor Measured in Biochemical System Using Plate Reader - 2163-02_Inhibitor_Dose_CherryPick_Activity.; assay type: functional, Mycobacterium tuberculosis UT205
Sequence of Adenosylmethionine-8-amino-7-oxononanoate aminotransferase (P9WQ81 whole entry): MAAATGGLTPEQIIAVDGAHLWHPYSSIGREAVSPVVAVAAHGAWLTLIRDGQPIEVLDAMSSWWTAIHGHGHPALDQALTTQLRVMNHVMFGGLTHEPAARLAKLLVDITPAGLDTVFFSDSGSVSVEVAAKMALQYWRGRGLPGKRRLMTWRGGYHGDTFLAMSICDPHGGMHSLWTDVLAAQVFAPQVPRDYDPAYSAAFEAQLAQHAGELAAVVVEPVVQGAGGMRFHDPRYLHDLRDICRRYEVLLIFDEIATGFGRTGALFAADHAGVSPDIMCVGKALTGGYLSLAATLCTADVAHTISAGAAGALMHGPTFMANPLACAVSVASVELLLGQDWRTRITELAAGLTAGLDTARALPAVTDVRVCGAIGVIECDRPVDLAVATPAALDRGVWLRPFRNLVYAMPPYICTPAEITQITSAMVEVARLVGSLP

[16] = microbe, parasite or virus in culture; assay type: functional; conditions: Mycobacterium tuberculosis
[17] = target: Fructose-bisphosphate aldolase (Mycobacterium tuberculosis, UniProt P9WQA3); experiment: Fluorescence-based biochemical high throughput dose response assay for inhibitors of the fructose-bisphosphate aldolase (FBA) of M. tuberculosis.; assay type: functional
Sequence of Fructose-bisphosphate aldolase (P9WQA3 whole entry): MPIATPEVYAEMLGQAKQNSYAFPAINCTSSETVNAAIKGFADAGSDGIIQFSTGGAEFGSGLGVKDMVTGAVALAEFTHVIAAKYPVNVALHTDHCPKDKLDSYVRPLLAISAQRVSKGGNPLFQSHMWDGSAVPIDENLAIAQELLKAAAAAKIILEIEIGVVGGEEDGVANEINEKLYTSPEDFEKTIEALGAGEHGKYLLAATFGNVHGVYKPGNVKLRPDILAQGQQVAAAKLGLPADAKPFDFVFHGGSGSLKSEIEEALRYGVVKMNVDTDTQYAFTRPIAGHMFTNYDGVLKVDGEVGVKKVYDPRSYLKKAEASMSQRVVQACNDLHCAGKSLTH

SMILES: O=C(CF)NC(Nc1cccc2cccnc12)C(Cl)(Cl)Cl (configuration not stated)
- IC50 [1]: > 10 µM (active)
- IC50 [2]: 2.03 µM (active)

SMILES: COc1ccc(C(C(=O)Nc2c(C)cccc2C)n2c(=O)c(-c3ccco3)nc3ccccc32)cc1 (configuration not stated)
- IC50 [3]: 2.42 µM (active)

SMILES: O=P(O)(O)c1ccccc1OCc1ccccc1
- IC50 [4]: > 59.6 µM (inactive)
- IC50 [5]: > 59.6 µM (inactive)
- IC50 [6]: > 59.6 µM (inactive)
- IC50 [7]: 2.21 µM (active)

SMILES: C[C@@H]1CN([C@@H](C)CO)S(=O)(=O)c2ccc(C#Cc3ccncc3)cc2O[C@@H]1CN(C)C(=O)Nc1ccc2c(c1)OCO2
- AC50 [8]: 6.9 µM (active)
- AC50 [9]: 10.7 µM (active)

SMILES: O=C(N/N=C/c1c[nH]c2ccccc12)c1cc(Br)ccc1O
- AC50 [10]: 7.18 µM (active)

SMILES: COc1cc(C2C(C(=O)c3sc(C)nc3C)=C(O)C(=O)N2CCN(C)C)cc(OC)c1OC (configuration not stated)
- IC50 [11]: 155 µM (inactive)

SMILES: COC(=O)CN1C(=S)N(c2ccc(Cl)cc2)C(=O)C1CC(=O)Nc1ccc(Cl)cc1 (configuration not stated)
- IC50 [12]: 13.7 µM (inactive)
- IC50 [13]: 83.3 µM (inactive)
- IC50 [14]: 19.7 µM (inactive)

SMILES: O=C(COc1ccc2ccc(=O)oc2c1)Nc1cccnc1
- AC50 [15]: 13.6 µM (active)

SMILES: C(=C\c1nccc2c1[nH]c1ccccc12)/c1ccccc1
- CC50 [16]: 25.4 µM (active)
- IC50 [17]: > 0.37 µM (active)
